The results in this text go back to ChEMBL document CHEMBL1156829 (Proc Natl Acad Sci U S A, 2008).

Data set [1] can be described thus: NOVARTIS: Cytotoxicity against human hepatocellular carcinoma cell line (Huh7). As to conditions: Huh7 cells (hepatocellular carcinoma cell line). The data set is classed as toxicity, cell-based, Huh-7.
Data set [2] has as its system Plasmodium falciparum. Nature of the data set: NOVARTIS: Inhibition of Plasmodium falciparum 3D7 (drug-susceptible) proliferation in erythrocyte-based infection assay. In kind it is functional, organism-based. Conditions: Plasmodium falciparum, 3D7.
The test system of data set [3] is Plasmodium falciparum. The data set can be described thus: NOVARTIS: Inhibition of Plasmodium falciparum W2 (drug-resistant) proliferation in erythrocyte-based infection assay. The data set is classed as functional, organism-based. As to conditions: Plasmodium falciparum, W2; read-out: EC50.

Regarding `COc1ccc(/C=C2/SC(=Nc3ccccc3OC)NC2=O)cc1`, the midpoint of cytotoxicity in data set [1], the CC50, lay at 19800 nM. Moreover, the EC50 in the data set with Plasmodium falciparum [2] amounted to 83.6 nM; with Plasmodium falciparum [3], 38.4 nM.
For `CCc1c(C#N)c(N)nc(SCC(=O)c2ccc(C)cc2C)c1C#N` the same measures were greater than 100000 nM, 308 nM and 196 nM.
For `O=C(CN1CCN(C(=O)c2ccco2)CC1)Nc1ccccc1Br` the same measures were greater than 100000 nM, 358 nM and 188 nM.
For `CCCCCC(=O)Oc1ccccc1-c1nc2ccccn2c1NC(C)(C)CC(C)(C)C` the same measures were greater than 10000 nM, 701 nM and 19.5 nM.
For the molecule `CCCCN(CC)CCNC(=O)C1c2ccccc2C(=O)N(Cc2ccc(F)cc2)C1c1ccc(OC)cc1` (stereo not drawn), the CC50 in data set [1] was greater than 100000 nM. Also, the EC50 was determined as 2270 nM with Plasmodium falciparum [2] and 195 nM in the data set on Plasmodium falciparum [3].
The matching figures for `Oc1ccc(-c2cccnc2)cc1CNC1C2CC3CC(C2)CC1C3` (stereo not drawn): greater than 100000 nM, 459 nM and 195 nM.
As for `O=C(COc1ccc(Cl)cc1)Nc1nnc(-c2ccc3c(c2)OCO3)s1`, the CC50 in data set [1] is greater than 13800 nM. Further, the EC50 in the data set with Plasmodium falciparum [2] was greater than 1250 nM; in the data set with Plasmodium falciparum [3], 26.7 nM.
For `COc1ccc(OC)c(-c2ccc(O)c(CNCC3CC4C=CC3C43CC3)c2)c1` (stereo not drawn) the same measures were 20600 nM, 350 nM and 39.8 nM.
The matching figures for `CCc1nn(-c2ccccc2)c2nc(-c3cc(Br)ccc3O)c3cc(OC)c(OC)cc3c12`: greater than 100000 nM, 466 nM and 192 nM.
For `Cc1ccccc1NC(=O)N1CCN(C(=O)c2nc(-c3ccccc3)nc(C)c2C(=O)OC(C)C)CC1C` (stereo not drawn) the same measures were 51900 nM, 135 nM and 99.5 nM.
On to `CCCCNC(=O)N1CCN(C(=O)C(Cc2c[nH]c3ccccc23)NC(=O)Nc2cccc(C#N)c2)CC1C` (stereo not drawn), for which, in data set [1], the CC50 is greater than 100000 nM. Also, the EC50 in the data set with Plasmodium falciparum [2] stood at 154 nM; in the data set on Plasmodium falciparum [3] it was 191 nM.
On to `COc1cccc(C2C(C(=O)Nc3ccc(C)cc3C)=C(C)Nc3c(C(=O)Nc4ccccc4)cnn32)c1` (stereo not drawn), for which the CC50 in data set [1] was greater than 100000 nM. Also, the EC50 is 590 nM in the data set with Plasmodium falciparum [2] and 190 nM with Plasmodium falciparum [3].
The matching figures for `CCOC(=O)C1=C(C)NC2=C(C(=O)CC(c3ccc(OC)cc3)C2)C1c1cccs1` (stereo not drawn): greater than 100000 nM, 833 nM and 189 nM.
For `COc1ccc(OC)c(-c2ccc(O)c(CN(C)CC(O)c3ccccc3)c2)c1` (stereo not drawn) the same measures were 66300 nM, 243 nM and 124 nM.
Molecule `COC(=O)c1ccc(N(C(=O)Cc2c[nH]c3ccccc23)C(C(=O)NC2CCCCC2)c2ccccc2F)cc1` (stereo not drawn) yielded a CC50 in data set [1] greater than 100000 nM. Further, the EC50 turned out to be 200 nM with Plasmodium falciparum [2] and 197 nM in the data set with Plasmodium falciparum [3].
For `COc1ccc(CN2CCOc3ccc(C(C)(O)CN(C)C)cc3C2)cc1C` (stereo not drawn) the same measures were greater than 100000 nM, 823 nM and 193 nM.
The matching figures for `Cc1ccc(NC(=O)C2c3ccccc3C(=O)N(CC(C)C)C2c2cccs2)c(Cl)c1` (stereo not drawn): greater than 100000 nM, 305 nM and 191 nM.
For `OC(CN1CCN(C/C=C/c2ccccc2)CC1)Cn1c2ccc(Br)cc2c2cc(Br)ccc21` (stereo not drawn) the same measures were greater than 10000 nM, 589 nM and 19.2 nM.
With `Clc1ccc2c(N3CCCC3)ccnc2c1`, the midpoint of cytotoxicity in data set [1], the CC50, lay at 64500 nM. Moreover, the results for the EC50 with Plasmodium falciparum [2] and in the data set with Plasmodium falciparum [3] were 283 nM and 124 nM, respectively.
The matching figures for `Cc1ccn2c(NC(C)(C)CC(C)(C)C)c(-c3ccccc3OC(=O)c3ccc(Br)cc3)nc2c1`: 75000 nM, 740 nM and 148 nM.
For `O=C(c1ccc(N2CC3CC(C2)c2cccc(=O)n2C3)c(NS(=O)(=O)c2ccc3c(c2)OCCO3)c1)N1CCN(c2ccccn2)CC1` (stereo not drawn) the same measures were greater than 100000 nM, 2020 nM and 194 nM.
